Experimental data from patent US6287553A, “Skin care composition” (Unilever Home & Personal Care USA, division of Conopco, Inc., priority 1998, dated 2001).
Entries after “also recorded” stand apart in the source; their conditions may differ.

Experiments:
keratinocytes = test: Keratinocyte SDS viability assay (Neutral Red); format: cell-based; conditions: 24 h, read-out: cell viability produced by SDS
Procedure: Keratinocytes were grown in 96 well plates to approximately 80% confluency in keratinocyte growth medium (KGM) which was then replaced with KGM without hydrocortisone for 24-48 hours. The cells were then treated with a concentration of sodium dodecyl sulphate (SDS) which will produce cell viability of approximately 50% ([…]). The test compounds "c9 t11 CLA" and "t10 c12 CLA" in table 7 are the same as the agents described above in Example 3. […] After incubating for 24 hours the medium was removed and the viability determined by the Neutral Red method. With this method the cells were incubated for 3 hours in KGM containing 25 μg/ml neutral red after which the medium was removed and the cells were then extracted with […] of 1% (v/v) acetic acid, 50% (v/v) ethanol for 30 min units. The absorbance of the extract at 562 nm was determined and the viability evaluated by reference to wells which contained neither SDS nor test compounds.

decorin [1] = test: Immunohistochemical analysis of decorin expression in photodamaged forearm skin after topical retinoic acid; format: in vivo, human (women)
Excerpt: (§1) Two groups of women were recruited with identical or nearly identical degrees of mild to moderate photodamage on each outer forearm. They were supplied with 0.05% retinoic acid in a moisturising base (Retinova®) and also with a colour matched moisturising cream with similar sensory characteristics (Dermacare® lotion) but no active ingredients as a placebo control. Each participant of the two groups applied the Retinova® to one outer forearm and placebo (Dermacare®) to the other outer forearm. Group 1 applied the products daily to their outer forearms for 14 weeks and the Group 2 applied the products to their outer forearms for 28 weeks. At the end of the studies two full thickness 4 mm punch biopsies were taken from the treated areas of each forearm. Immunohistochemical analysis of the biopsy tissue taken from the participants was performed to identify the effect of retinoic acid treatment on the expression of the skin extracellular matrix components decorin and procollagen-I as compared with the placebo treated forearms. The following procedure was followed:
(§2) Antibody dilution buffer for wax sections was composed of Tris Buffered Saline (TBS), 3% bovine serum albumin (BSA), 0.05% Triton X-100 and 0.05% sodium azide. Primary antibodies for procollagen-I (amino terminal) were obtained from Chemicon International Inc. (cat# MAB 1912, rat IgG1) and used on wax sections at a dilution of 1:800, overnight at 4° C. after the section had been pre-treated trypsin (0.5 mg/ml, 25 minutes, 37° C.). Primary antibodies for decorin were obtained from Biogenesis (rabbit polyclonal) and used on wax sections at a dilution of 1:800, overnight at 4° C. Anti-rat biotinylated secondary antibodies were obtained from DAKO (cat# E0468, rabbit polyclonal) was applied to wax sections at a dilution of 1:400. Anti-rabbit biotinylated secondary antibodies were obtained from Amersham (cat# RPN 1004, donkey polyclonal) was applied to wax sections at a dilution of 1:400. Streptavidin conjugated alkaline phosphatase was obtained from Zymed (cat# 43-4322) and used at a concentration of 1:2500. […]

skin = conditions: topical treatment of skin; Griffiths et al. 1993; cited from earlier work
decorin [2] = test: Decorin synthesis in human dermal fibroblasts (dot blot assay of conditioned medium); format: cell-based; conditions: Fibroblast, 24 h, read-out: upregulation of decorin synthesis
Procedure: Preparation of Dermal Fibroblast Conditioned Medium Primary human foreskin fibroblasts at passage 2 (P2) were seeded into 12-well plates at 10000 cells/cm^2 and maintained for 24 hours in an atmosphere of 5% carbon dioxide and 4% oxygen in Dulbeccos Modified Eagles Medium (DMEM) supplemented with 10% foetal calf serum. After this time the cells were washed with serum free DMEM and then incubated in fresh serum free DMEM for a further 60 hours. The fibroblast monolayers were then washed again with serum free DMEM. Test reagents and vehicle controls were added to the cells in triplicate in a final volume of 0.4 ml/well fresh serum free DMEM and incubated for a further 24 hours. This fibroblast conditioned medium was either analysed immediately or snap frozen in liquid nitrogen and stored at -70° C. for future analysis. The cells were then counted and data from the dot-blot analysis subsequently standardised to cell number.
Samples of conditioned medium from dermal fibroblasts treated with vehicle (as a control) or test reagents were supplemented with 20 mM dithiothreitol (1:10 dilution of 200 mM stock solution) and 0.1% sodium dodecylsulphate (1:100 dilution of 10% stock solution), mixed well and then incubated at 75° C. for 2 minutes. […]

procollagen-I = test: Immunohistochemical analysis of procollagen-I expression in photodamaged forearm skin after topical retinoic acid; format: in vivo, human (women)
Excerpt: as §1, §2

[3] = Group 1 after 14 weeks, 0.05% retinoic acid (Retinova) daily vs placebo, total 16 participants
[4] = Group 2 after 28 weeks, 0.05% retinoic acid (Retinova) vs placebo, total 15 participants
[5] = topical retinoic acid (Retinova) vs placebo (Dermacare)

| Structure (SMILES) | viability at 5 µg/mL (keratinocytes) [%] | No. of Participants showing marked increase in expression of decorin (decorin [1]; [3]) | No. of Participants showing marked increase in expression of decorin (decorin [1]; [4]) | decorin expression in photodamaged skin (decorin [1]; [5]) | wrinkle effacement / dermal repair (skin) | activity at 1 µM (decorin [2]) [%] | No. of Participants showing marked increase in expression of procollagen-I (procollagen-I; [3]) | No. of Participants showing marked increase in expression of procollagen-I (procollagen-I; [4]) | procollagen-I expression in photodamaged skin (procollagen-I; [5]) |
| --- | --- | --- | --- | --- | --- | --- | --- | --- | --- |
| CCCCCCCCCCCCOS(=O)(=O)[O-].[Na+] [sodium dodecyl sulphate (SDS), sodium dodecyl sulphate] | ~50 |  |  |  |  |  |  |  |  |
| CC1=C(/C=C/C(C)=C/C=C/C(C)=C/C(=O)O)C(C)(C)CCC1 [Retinoic acid, retinoic acid] |  | 10 No. of Participants | 15 No. of Participants | marked upregulation | induces dermal repair of photodamaged skin; also recorded: wrinkle effacement and dermal repair following topical treatment of skin with retinoic acid arises through new collagen deposition and synthesis in the skin | 138 ± 14 | 9 No. of Participants | 10 No. of Participants | marked upregulation |
